The source made the active and inactive calls. The rule behind the calls is not given here.
Each compound was assayed against Serine/threonine-protein kinase mTOR (Homo sapiens) (UniProt P42345) (assay: mTOR FRB domain ligand binding – biophysical, NMR (AID 1648)). Conditions: NMR binding to FRB domain, chemical shift.
Chain of Serine/threonine-protein kinase mTOR (Homo sapiens) (P42345 2015-2114): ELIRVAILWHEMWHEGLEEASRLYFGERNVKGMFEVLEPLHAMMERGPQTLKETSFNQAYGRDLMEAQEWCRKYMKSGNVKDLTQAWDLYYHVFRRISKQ
With CSc1nc2cc(F)c(F)cc2n1C the Kd was > 4 mM (inactive). With COc1cc2nc(N3CCNCC3)nc(N)c2cc1OC the Kd was > 4 mM (inactive). In the case of CCSc1nc2ccccc2n1CC(N)=O, the Kd was > 4 mM (inactive). With C=C1C2CC[C@@]3(C)[C@H](c4ccoc4)OC(=O)C[C@]13O[C@H]1CC(=O)C(C)(C)[C@H](C(O)C(=O)OC)[C@@]21C (some centres not stated) the Kd was > 4 mM (inactive). O=C1C2C3C=CC(C3)C2C(=O)N1CCCO (configuration not stated) was tested, and the Kd was > 4 mM (inactive). For NCc1ccc(-c2csnn2)cc1, the Kd was > 4 mM (inactive). For COC1=CC23CCCN2CCc2cc4c(cc2C3C1O)OCO4 (configuration not stated), the Kd was > 4 mM (inactive). With CSc1nc2nccc(N)n2n1 the Kd was > 4 mM (inactive). With COC(=O)[C@@H]1OC(=O)[C@H]2O[C@@]23[C@@]1(C)CCC1[C@@]2(C)CCC(=O)C(C)(C)C2C[C@@H](OC(C)=O)[C@]13C (some centres not stated) the Kd was > 4 mM (inactive). In the case of Nc1nsc(-c2ccccc2)n1, the Kd was > 4 mM (inactive). With Cc1nc2nc(-c3ccco3)nn2c(C)c1Cl the Kd was > 4 mM (inactive). In the case of c1ccc(CSc2ncccn2)cc1, the Kd was > 4 mM (inactive). For CN(C)S(=O)(=O)c1ccc(C(=O)NN)cc1, the Kd was > 4 mM (inactive). In the case of O=C(O)CCS(=O)(=O)c1ccccc1, the Kd was > 4 mM (inactive). O=C(O)c1ccc(NC(=O)c2cccs2)cc1 was tested, and the Kd was > 4 mM (inactive). With CC1(C)C(=O)N(O)C(C)(C)C(=O)N1O the Kd was > 4 mM (inactive). For CC1(C)Cc2nc3[nH]c(=S)[nH]c(=O)c3cc2CO1, the Kd was > 4 mM (inactive). With Nc1ccc(S(=O)(=O)Nc2ccc(F)cc2F)cc1 the Kd was > 4 mM (inactive). For O=c1c2ccccc2nc2n1CCC2O (configuration not stated), the Kd was > 4 mM (inactive). In the case of CC(C)C(=O)NCC(c1ccco1)N1CCOCC1 (configuration not stated), the Kd was > 4 mM (inactive). For O=C1CNCc2[nH]c3ccccc3c2N1c1ccccc1, the Kd was > 4 mM (inactive). In the case of O=C1NC(=O)C(C2SC(=O)NC2=O)S1 (configuration not stated), the Kd was > 4 mM (inactive). With C(=C\c1ccccc1)/C=N/n1cnnc1 the Kd was > 4 mM (inactive). NC1=NC(=O)/C(=C/c2ccccc2[N+](=O)[O-])S1 was tested, and the Kd was > 4 mM (inactive). In the case of CC(=O)N1CCN(S(=O)(=O)c2ccccc2)CC1, the Kd was > 4 mM (inactive). In the case of CC1(C)N([O-])c2cc([N+](=O)[O-])ccc2[N+]1=O, the Kd was > 4 mM (inactive). With Cc1ccc(C(=O)Nc2ccncc2)o1 the Kd was > 4 mM (inactive). Cc1cc(=O)[nH]c(NCc2cccnc2)n1 was tested, and the Kd was > 4 mM (inactive). For COC(=O)NNc1ncnc(N)c1[N+](=O)[O-], the Kd was > 4 mM (inactive). For O/N=C1/CCCc2nonc21, the Kd was > 4 mM (inactive). With COc1c2ccoc2nc2c(OC)c(OCC(O)C(C)(C)O)ccc12 (configuration not stated) the Kd was > 4 mM (inactive). In the case of C[C@@H]1O[C@@H](O[C@H]2[C@@H](Oc3cc(O)c4c(c3)O[C@H](c3ccc(O)cc3)CC4=O)O[C@H](CO)[C@@H](O)[C@@H]2O)[C@H](O)[C@H](O)[C@H]1O, the Kd was > 4 mM (inactive). O=C(O)C1CCN(S(=O)(=O)c2cccs2)CC1 was tested, and the Kd was > 4 mM (inactive). In the case of OCc1ccc2c(c1)OCO2, the Kd was > 4 mM (inactive). In the case of Cc1cccc(NC(=O)c2ccccc2C(=O)O)c1, the Kd was > 4 mM (inactive). With Cc1n[nH]c(C)c1-c1ccccc1C(=O)O the Kd was > 4 mM (inactive). In the case of NC(=O)c1ccc(NC(=O)c2cccnc2)cc1, the Kd was > 4 mM (inactive). For COc1ccccc1-c1noc(-c2ccco2)n1, the Kd was > 4 mM (inactive). Cc1[nH]c2ccccc2c1Cc1n[nH]c(=S)n1C was tested, and the Kd was > 4 mM (inactive). NC(=O)c1cc(N)ccc1N1CCCCC1 was tested, and the Kd was > 4 mM (inactive). In the case of Nc1ccc(S(=O)(=O)Nc2nccs2)cc1, the Kd was > 4 mM (inactive). With O[C@H]1C=C2CCN3Cc4cc5c(cc4C(C23)[C@@H]1O)OCO5 (some centres not stated) the Kd was > 4 mM (inactive). For Nc1nnc(C(F)(F)F)s1, the Kd was > 4 mM (inactive). S=c1nc(Cc2ccccc2)[nH][nH]1 was tested, and the Kd was > 4 mM (inactive). In the case of O=C(/C=C/c1ccc(O)cc1)c1ccc(O)cc1O, the Kd was > 4 mM (inactive). For Cc1sc2nc[nH]c(=S)c2c1C, the Kd was > 4 mM (inactive). For Cc1nccn1CCC(=O)O, the Kd was > 4 mM (inactive).

Source: PubChem BioAssay AID1648 (Sanford-Burnham Center for Chemical Genomics, 2009)
